Assay results as given in article PMC9737537, “In Vitro Susceptibility of HIV Isolates with High Growth Capability to Antiretroviral Drugs” (International Journal of Molecular Sciences, 2022).
Read-outs that look alike come from different tables or passages of the source.

How the values were obtained:
Assay type in all cases: cell-based
[1] = system: HIV isolates with high growth capability; assay: Antiretroviral drug response (HIV-RNA copies in PHA-PBMC culture, 7 days), pooled HIV isolates; conditions: for susceptibility of isolates / IC90 values relative to Cmin / Cmax: higher growth capability, without any known drug resistance-related mutation; for suppression of viral yield in vitro: HIV isolates of Figure 5
From the text: (§1) The following nucleotide reverse transcriptase inhibitors were used: emtricitabine (Tokyo Chemical Industry, Tokyo, Japan), lamivudine (Tokyo Chemical Industry, Japan), tenofovir (Selleck Biotech, Tokyo Japan), tenofovir alafenamide (Selleck Biotech, Japan), tenofovir disoproxil fumarate (Tokyo Chemical Industry, Japan), and zidovudine (FUJIFILM Wako, Tokyo, Japan). As it was reported that tenofovir and its prodrugs (tenofovir disoproxil fumarate and tenofovir alafenamide) are measurable in plasma, the antiviral activity of these three synthetic drugs were assessed in vitro [25, 36]. In addition, one non-nucleotide reverse transcriptase inhibitor, efavirenz (Tokyo Chemical Industry, Japan); two protease inhibitors, atazanavir (Selleck Biotech, Japan) and lopinavir (Funakoshi Frontiers in Life Science, Tokyo, Japan); and four integrase inhibitors, bictegravir (Selleck Biotech, Japan), dolutegravir (Selleck Biotech, Japan), elvitegravir (EVG, Selleck Biotech, Japan), and raltegravir (Selleck Biotech, Japan) were analyzed. Representative HIV isolates and a laboratory strain of HIVpNL4-3 were screened for antiretroviral drugs. Briefly, PHA-PBMCs (1.5 × 10^6 cells) were pelleted at 1000 g for 5 min, resuspended with an HIV preparation (10^6 copies) in 100 µL volume, and incubated at 37 °C for 1 h. To remove unbound and non-infectious viruses, the cells were washed twice with RPMI1640 medium and then cultured in different concentrations of antiretroviral compounds (1 mL). The culture was carried out for 7 days, as described above, for growth capability assessment. All procedures were performed in triplicate.
To determine the susceptibility of HIV isolates with high growth capability to synthetic antiretroviral compounds, we used the in vitro susceptibility of the virus (IC90) and pharmacokinetics of an antiretroviral agent (compared to reported Cmin and Cmax).
HIV-RNA in the culture medium (140 µL) was extracted using a QIAamp Viral RNA Mini Kit (QIAGEN KK-Japan, Tokyo, Japan) and subjected to quantitative reverse transcription polymerase chain reaction (qRT-PCR). The amount of HIV-RNA was assayed using a Luna Universal One-Step qRT–PCR kit (New England Biolabs Japan, Tokyo, Japan) and forward (GagB-1F, 5′-[…]-3′, HXB2 position: 1359–1388) and reverse (GagB-1R, 5′-[…]-3′, 1500–1474) primers. The PCR signal was assessed by comparison with a standard curve (encompassing 10^2–10^8 copies/reaction of the in vitro-transcribed RNA transcripts).
The IC50 was calculated using a nonlinear regression curve fit of the dose response curves of each transformed drug concentration and normalized viral load (copies/mL) using GraphPad Prism software (version 8.0). The IC90 was determine using the IC50 and Hill slope factor from the curve fit in the online GraphPad calculator (https://www.graphpad.com/quickcalcs/ECanything1/, accessed on 1 October 2022) for effective concentration. The results are expressed as the mean IC90 of three values obtained in triplicate for each isolate.

HIV isolate DR1509-397 = assay: Antiretroviral drug response in PHA-PBMC culture, isolate DR1509-397
Experimental: as §1, with “The activity of 13 synthetic antiretroviral compounds at concentrations ranging from 0.001 to 20 μM was evaluated against HIV isolates with diverse growth capabilities and without any known drug resistance-related mutation. The” for “The”, “Briefly, PHA-PBMCs (1.5 × 10^6 cells) were pelleted at 1000 g for 5 min, resuspended with an HIV preparation (10^6 copies) in 100 µL volume, and incubated at 37 °C for 1 h. To remove unbound and non-infectious viruses, the cells were washed twice with RPMI1640 medium and then cultured in different concentrations of antiretroviral compounds (1 mL). The culture was carried out for 7 days, as described above, for growth capability assessment. All procedures were performed in triplicate.” left out
HIV-RNA in the culture medium (140 µL) was extracted using a QIAamp Viral RNA Mini Kit (QIAGEN KK-Japan, Tokyo, Japan) and subjected to quantitative reverse transcription polymerase chain reaction (qRT-PCR). […] The PCR signal was assessed by comparison with a standard curve (encompassing 10^2–10^8 copies/reaction of the in vitro-transcribed RNA transcripts).
The IC50 was calculated using a nonlinear regression curve fit of the dose response curves of each transformed drug concentration and normalized viral load (copies/mL) using GraphPad Prism software (version 8.0). […] The results are expressed as the mean IC90 of three values obtained in triplicate for each isolate.

HIV isolate DR1605-400 = assay: Antiretroviral drug response in PHA-PBMC culture, isolate DR1605-400; conditions: Human immunodeficiency virus 1, 168 h, high growth capability, no known drug resistance-related mutation, 7 days
Experimental: as §1, with “The activity of 13 synthetic antiretroviral compounds at concentrations ranging from 0.001 to 20 μM was evaluated against HIV isolates with diverse growth capabilities and without any known drug resistance-related mutation. The” for “The”, “Briefly, PHA-PBMCs (1.5 × 10^6 cells) were pelleted at 1000 g for 5 min, resuspended with an HIV preparation (10^6 copies) in 100 µL volume, and incubated at 37 °C for 1 h. To remove unbound and non-infectious viruses, the cells were washed twice with RPMI1640 medium and then cultured in different concentrations of antiretroviral compounds (1 mL). The culture was carried out for 7 days, as described above, for growth capability assessment. All procedures were performed in triplicate.” left out

HIV isolate S1506-064 = assay: Antiretroviral drug response in PHA-PBMC culture, isolate S1506-064; conditions: Human immunodeficiency virus 1, 168 h, high growth capability, no known mutation against tenofovir, 7 days
Experimental: as §1, with “The activity of 13 synthetic antiretroviral compounds at concentrations ranging from 0.001 to 20 μM was evaluated against HIV isolates with diverse growth capabilities and without any known drug resistance-related mutation. The” for “The”, “Briefly, PHA-PBMCs (1.5 × 10^6 cells) were pelleted at 1000 g for 5 min, resuspended with an HIV preparation (10^6 copies) in 100 µL volume, and incubated at 37 °C for 1 h. To remove unbound and non-infectious viruses, the cells were washed twice with RPMI1640 medium and then cultured in different concentrations of antiretroviral compounds (1 mL). The culture was carried out for 7 days, as described above, for growth capability assessment. All procedures were performed in triplicate.” left out

HIV isolate DR1606-521 = assay: Antiretroviral drug response in PHA-PBMC culture, isolate DR1606-521
Experimental: as §1, with “The activity of 13 synthetic antiretroviral compounds at concentrations ranging from 0.001 to 20 μM was evaluated against HIV isolates with diverse growth capabilities and without any known drug resistance-related mutation. The” for “The”, “Briefly, PHA-PBMCs (1.5 × 10^6 cells) were pelleted at 1000 g for 5 min, resuspended with an HIV preparation (10^6 copies) in 100 µL volume, and incubated at 37 °C for 1 h. To remove unbound and non-infectious viruses, the cells were washed twice with RPMI1640 medium and then cultured in different concentrations of antiretroviral compounds (1 mL). The culture was carried out for 7 days, as described above, for growth capability assessment. All procedures were performed in triplicate.” left out

HIV isolate DR1510-726 = assay: Antiretroviral drug response in PHA-PBMC culture, isolate DR1510-726; conditions: Human immunodeficiency virus 1, 168 h, isolate with drug resistance-related mutation, 7 days
Experimental: as §1, with “The activity of 13 synthetic antiretroviral compounds at concentrations ranging from 0.001 to 20 μM was evaluated against HIV isolates with diverse growth capabilities and without any known drug resistance-related mutation. The” for “The”, “Briefly, PHA-PBMCs (1.5 × 10^6 cells) were pelleted at 1000 g for 5 min, resuspended with an HIV preparation (10^6 copies) in 100 µL volume, and incubated at 37 °C for 1 h. To remove unbound and non-infectious viruses, the cells were washed twice with RPMI1640 medium and then cultured in different concentrations of antiretroviral compounds (1 mL). The culture was carried out for 7 days, as described above, for growth capability assessment. All procedures were performed in triplicate.” left out

HIV isolate DR1606-479 = assay: Antiretroviral drug response in PHA-PBMC culture, isolate DR1606-479; conditions: Human immunodeficiency virus 1, 168 h, isolate with drug resistance-related mutation, 7 days
Experimental: as §1, with “The activity of 13 synthetic antiretroviral compounds at concentrations ranging from 0.001 to 20 μM was evaluated against HIV isolates with diverse growth capabilities and without any known drug resistance-related mutation. The” for “The”, “Briefly, PHA-PBMCs (1.5 × 10^6 cells) were pelleted at 1000 g for 5 min, resuspended with an HIV preparation (10^6 copies) in 100 µL volume, and incubated at 37 °C for 1 h. To remove unbound and non-infectious viruses, the cells were washed twice with RPMI1640 medium and then cultured in different concentrations of antiretroviral compounds (1 mL). The culture was carried out for 7 days, as described above, for growth capability assessment. All procedures were performed in triplicate.” left out

[2] = Human immunodeficiency virus 1, lowest among the 13 compounds, isolate not specified, read-out: lowest IC90 values
[3] = Human immunodeficiency virus 1, read-out: 90% inhibitory concentration (IC90)

| Compound | IC90 [1, 2] [µM] | susceptibility of isolates [1] | IC90 [1, 3] [µM] | IC90 values relative to Cmin / Cmax [1] | further results |
| --- | --- | --- | --- | --- | --- |
| CC(C)OC(=O)[C@H](C)N[P@](=O)(CO[C@H](C)Cn1cnc2c(N)ncnc21)Oc1ccccc1 [tenofovir alafenamide] | 0.0003 ± 0.00023 | retained susceptibility with lower IC90 values | – | – | activity against resistant isolates ([1]; isolates with drug resistance-related mutations in tenofovir disoproxil fumarate): active |
| COC(=O)N[C@H](C(=O)N[C@@H](Cc1ccccc1)[C@@H](O)CN(Cc1ccc(-c2ccccn2)cc1)NC(=O)[C@@H](NC(=O)OC)C(C)(C)C)C(C)(C)C [atazanavir] | 0.0013 ± 0.00112 | retained susceptibility with lower IC90 values | – | – | suppression of viral yield in vitro [1]: remarkably suppressed the viral yield |
| Nc1nc(=O)n([C@@H]2CS[C@H](CO)O2)cc1F [emtricitabine] | – | – | 0.68 ± 0.37 | close to or above Cmin | – |
| Nc1ccn([C@@H]2CS[C@H](CO)O2)c(=O)n1 [lamivudine] | – | – | 6.83 ± 3.96 | close to or above Cmin | – |
| COc1cc2c(cc1Cc1cccc(Cl)c1F)c(=O)c(C(=O)O)cn2[C@H](CO)C(C)C [elvitegravir] | – | retained susceptibility with lower IC90 values | – | – | – |
| C[C@H](Cn1cnc2c(N)ncnc21)OCP(=O)(O)O [tenofovir] | – | – | 2.05 ± 0.4 | above Cmax | IC90 (HIV isolate DR1509-397; Human immunodeficiency virus 1, 168 h, high growth capability, no known drug resistance-related mutation, PHA-PBMC, 7 days, read-out: IC90): 2 ± 0.4 µM; IC90 (HIV isolate DR1509-397; Human immunodeficiency virus 1, screened using two additional blood sources (three different blood sources, Figure 2B), read-out: mean IC90): 1.9 ± 0.04 µM; virus production in the presence of drug (HIV isolate DR1509-397; tenofovir at 1 μM (close to Cmax)): hardly showed the decrease in virus production; IC90 (HIV isolate DR1605-400): 1.4 ± 0.87 µM; IC90 (HIV isolate S1506-064): 2.8 ± 0.47 µM; IC90 (HIV isolate DR1606-521; Human immunodeficiency virus 1, 168 h, isolate with drug resistance-related mutation, PHA-PBMC, 7 days, read-out: IC90): 8.3 ± 0.12 µM; IC90 (HIV isolate DR1606-521; Human immunodeficiency virus 1, tenofovir-resistant isolate, above Cmax (Figure 4), read-out: concentration required to fully suppress the number of viral copies (printed as IC90)): 10 µM; IC90 (HIV isolate DR1510-726): 7.7 ± 0.06 µM; IC90 (HIV isolate DR1606-479): 8.5 ± 0.1 µM |
| O=C1Nc2ccc(Cl)cc2[C@@](C#CC2CC2)(C(F)(F)F)O1 [efavirenz] | – | – | 3.65 ± 0.77 | close to or above Cmin | IC90 relative to Cmin ([1]; isolates both with and without any known drug resistance-related mutation (Figure 5)): above Cmin |
| Cc1nnc(C(=O)NC(C)(C)c2nc(C(=O)NCc3ccc(F)cc3)c(O)c(=O)n2C)o1 [raltegravir] | – | retained susceptibility with lower IC90 values | – | – | – |
| Cc1cccc(C)c1OCC(=O)N[C@@H](Cc1ccccc1)[C@@H](O)C[C@H](Cc1ccccc1)NC(=O)[C@H](C(C)C)N1CCCNC1=O [lopinavir] | – | retained susceptibility with lower IC90 values | – | – | – |
| Cc1cn([C@H]2C[C@H](N=[N+]=[N-])[C@@H](CO)O2)c(=O)[nH]c1=O [zidovudine] | 0.0015 ± 0.00111 | retained susceptibility with lower IC90 values | – | – | – |
| C[C@@H]1CCO[C@H]2Cn3cc(C(=O)NCc4ccc(F)cc4F)c(=O)c(O)c3C(=O)N12 [dolutegravir] | 0.0011 ± 0.00072 | retained susceptibility with lower IC90 values | – | – | suppression of viral yield in vitro [1]: remarkably suppressed the viral yield |
| O=C(NCc1c(F)cc(F)cc1F)c1cn2c(c(O)c1=O)C(=O)N1[C@H]3CC[C@H](C3)O[C@@H]1C2 [bictegravir] | – | retained susceptibility with lower IC90 values | – | – | – |
